Experimental data from BigSolDB 2.1.

Cc1c(N(C)CS(=O)(=O)[O-])c(=O)n(-c2ccccc2)n1C.O.[Na+]
solubility (mole fraction)
Conditions | in acetone | in ethanol | in ethyl acetate | in isopropanol | in methanol | in methyl acetate | in n-butanol | in n-propanol | in sec-butanol | in water
293.15 K | 0.0001 | 0.0032 | 0.0001 | 0.0003 | 0.0278 | 0.0001 | 0.0003 | 0.0011 | 0.0002 | 0.0538
298.15 K | 0.0001 | 0.0037 | 0.0001 | 0.0004 | 0.0318 | 0.0001 | 0.0004 | 0.0013 | 0.0003 | 0.0576
303.05 K | 0.0002 | 0.0042 | 0.0001 | 0.0005 | 0.0363 | 0.0001 | 0.0005 | 0.0016 | 0.0004 | 0.0615
308.05 K | 0.0002 | 0.0049 | 0.0002 | 0.0006 | 0.0408 | 0.0001 | 0.0007 | 0.0019 | 0.0006 | 0.0656
313.05 K | 0.0003 | 0.0056 | 0.0002 | 0.0008 | 0.0475 | 0.0002 | 0.0009 | 0.0023 | 0.0007 | 0.0697
318.05 K | 0.0003 | 0.0064 | 0.0003 | 0.0009 | 0.0521 | 0.0002 | 0.0012 | 0.0028 | 0.001 | 0.0738
323.05 K | 0.0004 | 0.0073 | 0.0003 | 0.0011 | 0.058 | 0.0003 | 0.0015 | 0.0034 | 0.0013 | 0.0782
327.95 K | 0.0005 | 0.0082 | 0.0004 | 0.0014 | 0.0634 | 0.0004 | 0.0019 | 0.004 | 0.0016 | 0.0825
332.85 K | 0.0006 | 0.0092 | 0.0005 | 0.0016 | 0.0688 | 0.0005 | 0.0024 | 0.0047 | 0.0021 | 0.087
